Experimental data published in US20230338529A1, “COMPOSITIONS FOR ALTERING A MICROGLIAL CELL, AND METHODS OF USE THEREFORE” (The Children's Medical Center Corporation, priority 2020, published 2023).

Legend:
microglia = assay: Microglia depletion in vivo with PLX3397, P2Y12-stained spinal cord; design: species or system mice; settings: 7 days after PLX3397 treatment; P2Y12 staining
Description: Mice were given a lethal dose of anesthesia and transcardially perfused with PBS followed by 4% paraformaldehyde (PFA). PFA fixed tissues were incubated in 30% sucrose in PBS for 3 days at 4° C., embedded in OCT (Tissue-Tek), frozen in a dry ice/ethanol bath, and stored at -80° C. Transverse and sagittal sections were cut on a cryostat at 30 µm thick and stored at -20° C. until processed. Before staining, sections were warmed to room temperature and dried on a 37° C. slide warmer for 2 h. Sections then were treated with a blocking solution containing 10% normal donkey serum and 0.5% Triton-100 for 2 hours at room temperature. The primary antibodies used were: rabbit/goat anti-5-HT [Immunostar (20080/20079), 1: 5,000]; rabbit anti-GFAP [DAKO (Z0334), 1:600]; rat anti-GFAP [Thermo Fisher (13-0300), 1:600]; rabbit anti-P2Y12 [AnaSpec (AS-55043A), 1:200]; rat anti-CD68 [Bio-Rad (MCA1957), 1:600]; rabbit anti-Fibronectin [Millipore (AB2033), 1:200]; rabbit anti- Collagen I [Abcam (ab21286), 1:200]; chicken anti-GFP [Abcam (ab13970), 1:400]; goat anti-SPP1 [R&D (AF808), 1:400]; mouse anti-Ly6G/Ly6C [R&D (MAB1037), 1:200]; mouse anti-CSPG [Sigma-Aldrich (C8035), 1:200]; rabbit anti-CSPG [Sigma-Aldrich (L9393), 1:500]; rabbit anti-RFP [Abcam (ab34771), 1:400]. […]

[1] = system: neonatal spinal cord lesion after P2 crush; assay: P2 spinal cord crush with microglia depletion: bridge formation, wound healing and axon regrowth by immunostaining; format: in vivo, mice
Description: Newborn pups (P2/P7) were anesthetized by isoflurane. A laminectomy was performed at T10 until the spinal cord was exposed completely from side-to-side. The spinal cord was then fully crushed for 2 seconds with forceps with a width of 0.1 mm in the last 5 mm of tips. The muscles and skin were sutured in layers with 6-0 sutures. EMLA topical cream was used for post-surgery analgesia. Animals then were warmed up and kept in a box containing the bedding from the original cage for at least 30 minutes. After that, the closed surgical site was rubbed with the feces from the mom using a Q-tip and then returned to the mom. Feeding was closely monitored in the first week after surgery. Nutra-Gel diets (Bio-Serv) or breeder chow diets were provided to avoid cannibalism. […] In case of bladder dysfunction, bladder emptying was performed once a day until bladder function was restored.
Mice were given a lethal dose of anesthesia and transcardially perfused with PBS followed by 4% paraformaldehyde (PFA). PFA fixed tissues were incubated in 30% sucrose in PBS for 3 days at 4° C., embedded in OCT (Tissue-Tek), frozen in a dry ice/ethanol bath, and stored at -80° C. Transverse and sagittal sections were cut on a cryostat at 30 µm thick and stored at -20° C. until processed. Before staining, sections were warmed to room temperature and dried on a 37° C. slide warmer for 2 h. Sections then were treated with a blocking solution containing 10% normal donkey serum and 0.5% Triton-100 for 2 hours at room temperature. The primary antibodies used were: rabbit/goat anti-5-HT [Immunostar (20080/20079), 1: 5,000]; rabbit anti-GFAP [DAKO (Z0334), 1:600]; rat anti-GFAP [Thermo Fisher (13-0300), 1:600]; rabbit anti-P2Y12 [AnaSpec (AS-55043A), 1:200]; rat anti-CD68 [Bio-Rad (MCA1957), 1:600]; rabbit anti-Fibronectin [Millipore (AB2033), 1:200]; rabbit anti- Collagen I [Abcam (ab21286), 1:200]; chicken anti-GFP [Abcam (ab13970), 1:400]; goat anti-SPP1 [R&D (AF808), 1:400]; mouse anti-Ly6G/Ly6C [R&D (MAB1037), 1:200]; mouse anti-CSPG [Sigma-Aldrich (C8035), 1:200]; rabbit anti-CSPG [Sigma-Aldrich (L9393), 1:500]; rabbit anti-RFP [Abcam (ab34771), 1:400]. Secondary antibodies included: Alexa Fluor 488-conjugated donkey anti chicken/rabbit; Alexa Fluor 555-conjugated donkey anti goat/rabbit/mouse and Dylight 650-conjugated donkey anti rat (all from Invitrogen). Spinal cord transverse and sagittal sections were imaged with a confocal laser-scanning microscope (Zeiss 700 or Zeiss 710). Figures showing large longitudinal spinal cord section were acquired using Zeiss 710 with image stitching and/or stack software.
The lesion site was defined and traced using Collagen I, Fibronectin, GFAP, P2Y12, CD68, CD31, CSPG, Laminin or Ly6G/Ly6C staining. Mice were perfused separately at 3, 7 or 14 days after spinal cord crush as described above to visualize lesion site. Cell nuclei were stained by incubation with DAPI for 30 seconds. Immunostaining intensity in the lesion site (100 µm width region in the epicenter) was measured using ImageJ software and normalized to the intact (proximal) region of the spinal cord.
To quantify the regenerating/late-arriving 5-HT/CST axons after spinal cord crush, sagittal sections through the lesion were stained with antibodies against 5-HT or RFP. Images of 5-6 sections for each animal were taken under a 10X objective and used for quantification. A series of rectangular segments 100 µm wide and 400 µm high covering the dorsal-ventral aspect of the cord were superimposed onto the sagittal sections, starting from lesion center up to a defined distance caudal. After subtracting the background, the pixel value of each segment was normalized by dividing with the rostral segment (1 mm rostral). The results were presented as a ratio at different distances (axons density index).
To deplete microglia in vivo, adult mice were given the CSF1R inhibitor PLX3397 mixed into AIN-76A standard chow (Research Diets). […]

FC(F)(F)c1ccc(CNc2ccc(Cc3c[nH]c4ncc(Cl)cc34)cn2)cn1 [PLX3397]
microglia depletion in neonatal spinal cord (microglia): most microglia were depleted
bridge formation (fibronectin, CD68 staining) ([1]; P2 crush, 3 dpi): defects of bridge formation
wound healing and axon regeneration after neonatal crush (5-HT, GFAP staining) ([1]; P2 crush, 7 dpi): impairs wound healing and axon regeneration
GFAP+ reactive astrocytes in the lesion ([1]; P2 crush, 14 dpi): strong GFAP+ reactive astrocytes accumulating in the epicenter
accumulation of basal lamina components (CSPG, laminin) ([1]; P2 crush, 14 dpi): limited accumulations
axon growth at the lesion (5-HT) ([1]; P2 crush, 14 dpi): majority of axons stalled at the lesion epicenter
blood vessels in the lesion (CD31) ([1]; P2 crush, 14 dpi): blood vessels were absent
bridge formation between the two severed stumps ([1]; P2 injury model, 3 or 7 dpi): impaired bridge formation
